The target of test [1] is Adenosine receptors; A1 & A3 (Rattus norvegicus) (UniProt P25099+P28647). Nature of the test: Selectivity for Adenosine A3 over Adenosine A1 receptor. The test is classed as protein assay.
Test [2] addresses Adenosine receptor A2a (Rattus norvegicus, UniProt P30543). Nature of the test: Affinity to Adenosine A2A receptor of rat brain striatum using [3H]-CGS- 21680. The format is tissue-based.
Test [3] has as its target T1, Adenosine receptor A1 (Rattus norvegicus, UniProt P25099).
T1 sequence (P25099 whole entry): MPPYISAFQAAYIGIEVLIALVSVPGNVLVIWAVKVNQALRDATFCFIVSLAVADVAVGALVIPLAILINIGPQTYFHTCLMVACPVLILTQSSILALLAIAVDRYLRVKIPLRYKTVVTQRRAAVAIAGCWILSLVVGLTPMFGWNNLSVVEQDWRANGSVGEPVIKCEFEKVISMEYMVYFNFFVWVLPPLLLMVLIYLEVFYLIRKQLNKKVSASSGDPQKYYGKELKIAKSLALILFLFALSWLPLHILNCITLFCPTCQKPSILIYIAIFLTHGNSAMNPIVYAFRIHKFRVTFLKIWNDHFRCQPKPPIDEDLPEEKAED
Description: Inhibition of [3H]CHA (N6-cyclohexyl adenosine) to rat brain membrane Adenosine A1 receptor

Test [4] has as its target T2, Adenosine receptor A3 (Rattus norvegicus) (UniProt P28647).
T2 sequence (whole entry): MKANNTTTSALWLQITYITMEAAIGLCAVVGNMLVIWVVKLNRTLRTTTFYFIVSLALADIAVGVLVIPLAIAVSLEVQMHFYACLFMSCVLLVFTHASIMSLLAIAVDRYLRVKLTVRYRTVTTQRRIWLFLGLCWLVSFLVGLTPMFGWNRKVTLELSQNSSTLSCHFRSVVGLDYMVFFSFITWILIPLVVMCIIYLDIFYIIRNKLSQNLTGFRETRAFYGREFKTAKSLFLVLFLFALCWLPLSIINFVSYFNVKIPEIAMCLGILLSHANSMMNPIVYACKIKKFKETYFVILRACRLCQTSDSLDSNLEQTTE
Nature of the test: Displacement of [3H](R)-PIA from Adenosine A3 receptor of rat testis membrane with 150 nM DPCPX at 10e-5 M. (In a radioligand displacement assay an active substance lowers the binding of a labelled ligand.)

The species entered for test [5] is Rattus norvegicus. The test is described as follows: Inhibition of Adenylyl cyclase activity in rat cortical membranes. The test is classed as functional.
Test [6] has as its target T3, Adenosine receptor A3 (Rattus norvegicus, UniProt P28647).
T3 sequence (P28647 whole entry): T2 sequence (whole entry)
The test is described as follows: Affinity to Adenosine A3 receptor of rat testis membrane using [3H](R)-PIA with 150 nM DPCPX.

For test [7], the species on record is Rattus norvegicus. The test is described as follows: % maximal inhibition of Adenylyl cyclase activity in rat cortical membranes at 100 uM. The test is classed as functional.
The species named for test [8] is Rattus norvegicus. Nature of the test: % maximal inhibition of Adenylyl cyclase activity in rat cortical membranes at 10 uM. The test is classed as functional.
Test [9] addresses T2, Adenosine receptor A3 (Rattus norvegicus). The test is described as follows: Displacement of [3H](R)-PIA from Adenosine A3 receptor of rat testis membrane with 150 nM DPCPX.

pIC50, pKi: −log10 of the molar value.

Broadly, the pKi is the negative decadic logarithm of the Ki, by convention in mol/L. A higher pKi goes with a low Ki. As usually defined, the pIC50 is the IC50 on a negative log10 scale, so that one unit is a factor of ten. High values mean a low IC50, low ones a high IC50.

Adenosine receptor A2a, sequence (P30543 whole entry): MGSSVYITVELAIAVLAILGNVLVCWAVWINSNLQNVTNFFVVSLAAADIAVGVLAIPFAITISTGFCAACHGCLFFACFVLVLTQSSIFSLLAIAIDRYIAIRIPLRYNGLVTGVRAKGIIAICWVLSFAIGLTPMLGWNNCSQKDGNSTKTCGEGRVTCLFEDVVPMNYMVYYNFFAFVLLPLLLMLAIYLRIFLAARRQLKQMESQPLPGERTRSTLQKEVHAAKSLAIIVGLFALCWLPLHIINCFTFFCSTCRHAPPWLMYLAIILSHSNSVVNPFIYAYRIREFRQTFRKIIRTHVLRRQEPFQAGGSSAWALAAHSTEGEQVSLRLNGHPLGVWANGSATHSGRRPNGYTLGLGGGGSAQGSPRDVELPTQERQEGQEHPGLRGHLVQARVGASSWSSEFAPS

On to `C[C@H](Cc1ccccc1)Nc1ncnc2c1ncn2[C@@H]1O[C@H](CO)[C@@H](O)[C@@]1(C)O`, for which the Selectivity in [1] came out at 230. In addition, the results for the pKi in test [2] and in test [3] were 5.13 and 8.33, respectively.

The compound `C[C@@]1(O)[C@H](O)[C@@H](CO)O[C@H]1n1cnc2c(N)ncnc21` returned a Displacement in test [4] of 0%. Besides, the pKi in [3] was 6.13.

For the compound `C[C@@H](Cc1ccccc1)Nc1ncnc2c1ncn2[C@]1(C)O[C@H](CO)[C@@H](O)[C@H]1O`, in test [5], the pIC50 was 6.85. The pKi in test [6] is 5.21; in test [3], 6.57. The same compound showed a Max inhibition in test [7] of 29%.

Consider `OC[C@H]1O[C@@H](n2cnc3c(NC4CCCC4)ncnc32)[C@H](O)[C@@H]1O` [N6-CYCLOPENTYLADENOSINE], for which, in test [2], the pKi was 6.42. In test [8], the Max inhibition is 15.5%.

Compound `C[C@@]1(n2cnc3c(N)ncnc32)O[C@H](CO)[C@@H](O)[C@H]1O` came in with a Selectivity in test [1] of more than 1.3. In addition, the pIC50 in test [5] is 5.46. Further, the Displacement in test [9] was 19%. This compound also came in with a Max inhibition in test [7] of 22%. In [3], this compound showed a pKi of 5.11.

Turning to `C[C@@]1(O)[C@H](O)[C@@H](CO)O[C@H]1n1cnc2c(NC3CCCC3)ncnc21`, the Selectivity in [1] turned out to be 22.1. In test [3], the pKi was 8.02.

In test [1], `C[C@@]1(n2cnc3c(NC4CCCC4)ncnc32)O[C@H](CO)[C@@H](O)[C@H]1O` yielded a Selectivity of 52. In test [5], this compound showed a pIC50 of 6.45. The figures for the pKi in test [6] and in test [3] were 5.29 and 7.00, respectively. The Max inhibition in [7] was 17.4%.

In turn, `C[C@@H](Cc1ccccc1)Nc1ncnc2c1ncn2C1O[C@H](CO)[C@@H](O)[C@@]1(C)O` (some centres undefined) came in with a Selectivity in test [1] of 200. In test [3], the pKi is 7.30.

Turning to `C[C@@]1(O)[C@@H](CO)O[C@@H](n2cnc3c(N)ncnc32)[C@@H]1O`, in test [1], the Selectivity is more than 202.

The compound `C[C@H](Cc1ccccc1)Nc1ncnc2c1ncn2[C@]1(C)O[C@H](CO)[C@@H](O)[C@H]1O` had a pIC50 in test [5] of 7.19. The same compound gave a pKi in [6] of 6.17. The Max inhibition in test [7] came to 23.7%.

Source of the values: ChEMBL document CHEMBL1135881, “Ribose-modified nucleosides as ligands for adenosine receptors: synthesis, conformational analysis, and biological evaluation of 1'-C-methyl adenosine analogues” (J Med Chem, 2002).
